One data set deals with psoriasis. The following applies: cited from earlier work.
For a further data set, the system named is dermal inflammation. The following applies: cumulative weekly doses of 0.35 mg/kg; cited from earlier work.
The next data set deals with adjuvant arthritis. The following applies: cumulative weekly doses of 0.12 mg/kg; cited from earlier work.
In data set [1] the target is T1, dihydrofolate reductase (DHFR) in the liver (Mus musculus, UniProt P00375).
T1 construct: from tissue; host or cells: liver (homogenate supernatant) of dosed mice
T1 sequence (P00375 1-187): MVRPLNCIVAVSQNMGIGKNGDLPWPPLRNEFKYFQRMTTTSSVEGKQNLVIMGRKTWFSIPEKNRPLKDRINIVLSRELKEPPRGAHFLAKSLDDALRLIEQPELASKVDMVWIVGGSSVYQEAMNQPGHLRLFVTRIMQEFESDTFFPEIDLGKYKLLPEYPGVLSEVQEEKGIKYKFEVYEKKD
The experiment in a line: free DHFR in liver by 3H-MTX binding after weekly dosing. Type of data set: in vivo, mice. How it is done: The animals that were treated in Example 1 were further analyzed with respect to the free dihydrofolate reductase (DHFR) available in their livers (i.e., amount of DHFR unbound, or not inhibited by either AMT or MTX) (FIG. 6). The following procedure was used. Portions of frozen liver were weighed and homogenized in three volumes of assay buffer (10 mM KPO4, 150 mM KCl, 1 mg/ml charcoal-treated BSA, 0.1 mg/ml NADPH, pH 7.5) on ice. After centrifugation for 30 min at 16000×G at 4° C., tissue extract was assayed for free DHFR by binding of 3H-MTX. Three serial 1:2 dilutions were made in assay buffer (total 100 μl/tube), starting with 10 μl extract for control samples (+190 μl buffer) or 100 μl for antifolate-treated samples. Approximately 2 pmoles of 3H-MTX (˜100,000 dpms) in 100 μl buffer was added to each tube and mixed by addition of another 100 μl buffer and agitation. After 30 mins on ice, unbound 3H-MTX was removed by addition of 200 μl dextran-coated activated charcoal (2.5% activated charcoal and 0.5% dextran MW 10,000) and centrifugation. Radioactivity in the supernatant (=bound 3H-MTX) was counted after careful removal from the charcoal pellet and addition of Ultima Gold scintillation fluid. A charcoal “blank” consisting of buffer, 3H-MTX and charcoal was subtracted from each value. Results were calculated by averaging the dpms bound/100 μl of the three dilutions, converting to picomoles MTX (specific activity 49,000 dpms/picomole, determined by competitive radioligand assay), and multiplying by 30 to give picomoles/gm tissue.

The subject of data set [2] is rheumatoid arthritis, psoriatic arthritis, uncomplicated psoriasis, and atopic dermatitis. The conditions noted are these: 0.75-2 mg/day for approximately 1 week and greater; cited from earlier work.
The test system of data set [3] is chronic progressive multiple sclerosis. The experiment in a line: randomized, placebo-controlled clinical trial in chronic progressive multiple sclerosis. It counts as in vivo, human. How it is done: A prophetic randomized, double-blinded, placebo-controlled, clinical trial of low-dose, weekly, oral aminopterin is performed in 60 patients with clinically definite chronic progressive multiple sclerosis (MS) attending a referral-based outpatient MS clinic. Study patients are 21 to 60 years old with a disease duration of longer than 1 year. Patients' Expanded Disability Status Scale scores were 3.0 to 6.5 (ambulatory with moderate disability). Patients are first stratified by Expanded Disability Status Scale scores, 3.0 to 5.5 and 6.0 to 6.5, and then were randomized to receive aminopterin or placebo treatment. Treatment consists of weekly, oral, low-dose (1.0-2.0 mg) aminopterin or placebo for 2 years, followed by observation for as long as 1 year. A composite outcome measurement instrument is used and consists of (1) Expanded Disability Status Scale (EDSS), (2) ambulation index, (3) Box and Block Test, and (4) 9-Hole Peg Test. Failure of therapy is indicated by a designated change that is sustained for more than 2 months in one or more components of this composite measure.

In another data set the test system is formaldehyde arthritis. The following applies: cumulative weekly doses of 0.3 mg/kg; cited from earlier work.
The test system of the next data set is ma104 cells. In words: adenosine release from ma104 cells. Type of data set: cell-based. The conditions noted are these: 8 hours incubation. How it is done:
Various concentrations of aminopterin were incubated with ma104 cells for 8 hours, and the release of adenosine measured (FIG. 5).

Data set [4] deals with antigen-induced arthritis. The following applies: cumulative weekly doses of >1.5 mg/kg; cited from earlier work.

Where two headings read alike, the source gives them in different places.

Consider `Nc1nc(N)c2nc(CNc3ccc(C(=O)N[C@@H](CCC(=O)O)C(=O)O)cc3)cnc2n1` [aminopterin, 4-amino-pteroyl-L-glutamic acid], for which the “frequency of toxic reactions” value in the data set on psoriasis (schedule (i): 1 tablet (0.5 mg) daily for six days) is reported as 0%; in the data set with psoriasis (schedule (ii): 1 tablet daily six days, one week rest, 1 tablet daily six days), 2.5%; with psoriasis (schedule (iii): 1 tablet daily for 12 days), 13%; with psoriasis (schedule (iv): 2 tablets daily for six days), 30%. In addition, the efficacy result (in the data set on dermal inflammation; in the data set with adjuvant arthritis; with formaldehyde arthritis; in data set [4]) was “demonstrated the efficacy” throughout. Besides, the toxicity result with dermal inflammation was “the animals became severely leucopenic and one subject died”; in the data set on adjuvant arthritis it was “severe toxicity”; in data set [4], “severe toxicity”. For the same compound, the “available DHFR in the liver bound (inhibited)” value in data set [1] (1 day after the last of 4 sequential weekly doses) was “about 95%”; in data set [1] (8 d after the last of 4 weekly doses), “about 83%”; in data set [1] (22 d after the last of 4 weekly doses), “about 70%”. In addition, the toxic reactions entry in [2] is on record as “the majority of patients developed toxic reactions”. Further, in data set [3] (weekly oral 1.0-2.0 mg for 2 years), the “toxicity in the treatment group” value is recorded as “absence of clinically significant toxicity”. Further, the “progression of impairment (EDSS, ambulation index, Box and Block Test, 9-Hole Peg Test or composite)” value in data set [3] (weekly oral 1.0-2.0 mg for 2 years vs placebo) is “Significantly less progression of impairment”. Moreover, the midpoint of the response in the data set with ma104 cells, the EC50, lay at 0.5 nM.

Values taken from patent US8129383B2, “Aminopterin dosage forms and methods for inflammatory disorders” (Aminopterin LLC, priority 2005, dated 2012).
